The values that follow come from publication PMC12154458, “High-Throughput Screens of Repurposing Hub and DOS Chemical Libraries Reveal Compounds with Novel and Potent Inhibitory Activity Against the Essential Non-Neuronal Acetylcholinesterase of Schistosoma mansoni (SmTAChE)” (International Journal of Molecular Sciences, 2025).

Where two headings read alike, the source gives them in different places.

One test relates to S. mansoni worms in vivo. The following applies: one time 200 mg/kg by oral gavage, four mice, 16–18 days post-drug administration; cited from earlier work.
The test system of test [1] is S. mansoni adult male and female worms. The settings on record: survival over 3 days; read-out: IC50 against adults; cited from earlier work.
For test [2], the system named is newly transformed S. mansoni schistosomula. The following applies: survival over 3 days; read-out: IC50 against schistosomula; cited from earlier work.
In test [3] the target is recombinant human acetylcholinesterase, rHsAChE (Homo sapiens, UniProt P22303). Description: biochemical.
Chain of recombinant human acetylcholinesterase, rHsAChE (P22303 32-614): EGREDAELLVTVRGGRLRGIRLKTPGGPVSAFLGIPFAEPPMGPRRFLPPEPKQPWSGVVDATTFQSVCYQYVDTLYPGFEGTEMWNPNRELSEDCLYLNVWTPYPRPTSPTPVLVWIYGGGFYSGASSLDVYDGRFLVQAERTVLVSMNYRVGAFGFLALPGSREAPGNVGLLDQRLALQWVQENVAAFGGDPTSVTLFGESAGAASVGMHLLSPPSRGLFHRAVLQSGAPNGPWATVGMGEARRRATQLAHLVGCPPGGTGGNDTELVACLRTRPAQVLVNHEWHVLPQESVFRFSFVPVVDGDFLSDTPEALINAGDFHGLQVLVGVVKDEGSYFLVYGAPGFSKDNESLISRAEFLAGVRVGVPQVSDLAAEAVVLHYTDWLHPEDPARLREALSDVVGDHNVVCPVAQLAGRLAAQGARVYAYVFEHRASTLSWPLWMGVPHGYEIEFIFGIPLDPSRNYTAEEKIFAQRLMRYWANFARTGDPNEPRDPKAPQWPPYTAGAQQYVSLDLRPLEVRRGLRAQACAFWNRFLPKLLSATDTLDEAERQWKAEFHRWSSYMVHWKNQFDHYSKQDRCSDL
Test [4] has as its target T1, rSmTAChE (Schistosoma mansoni, UniProt A0A3Q0KMM5). As to the kind of experiment: biochemical.
In test [5] the target is T1, rSmTAChE. It is filed as biochemical.
The test system of test [6] is human red blood cell AChE. The settings on record: cited from earlier work.
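For Inhibition (%) (Average) in this document: mostly 20 µM final but a few compounds at 5 or 10 µM.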
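For Inhibition (%) Replicate A in this document: mostly 20 µM final but a few compounds at 5 or 10 µM.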
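For Inhibition (%) Replicate B in this document: mostly 20 µM final but a few compounds at 5 or 10 µM.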

T1 sequence (A0A3Q0KMM5 27-661 limits assumed): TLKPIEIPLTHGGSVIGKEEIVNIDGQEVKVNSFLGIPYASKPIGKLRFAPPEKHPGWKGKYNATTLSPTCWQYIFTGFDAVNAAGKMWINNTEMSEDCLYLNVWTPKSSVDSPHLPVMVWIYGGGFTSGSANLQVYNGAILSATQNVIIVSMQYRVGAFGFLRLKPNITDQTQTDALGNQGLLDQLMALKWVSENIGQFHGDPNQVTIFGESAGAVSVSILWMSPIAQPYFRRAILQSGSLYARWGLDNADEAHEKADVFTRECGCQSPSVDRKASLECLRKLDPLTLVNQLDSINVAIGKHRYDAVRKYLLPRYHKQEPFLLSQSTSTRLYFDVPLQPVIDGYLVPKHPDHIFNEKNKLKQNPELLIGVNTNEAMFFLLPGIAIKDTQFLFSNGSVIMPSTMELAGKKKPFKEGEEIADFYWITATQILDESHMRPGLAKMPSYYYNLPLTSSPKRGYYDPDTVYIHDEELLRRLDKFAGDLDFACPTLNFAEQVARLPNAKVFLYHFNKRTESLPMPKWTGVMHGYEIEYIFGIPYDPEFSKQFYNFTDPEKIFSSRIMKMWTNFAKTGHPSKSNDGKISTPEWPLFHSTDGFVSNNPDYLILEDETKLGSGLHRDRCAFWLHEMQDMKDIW

As usually defined, the IC50 is the concentration needed to halve the response being measured. With `Nc1nc(NCC2CCC(CNS(=O)(=O)c3cccc4ccccc34)CC2)nc2ccccc12` (stereo not drawn) [CGP-71683, reference compound], the “worm burden compared to the controls” value in the test on S. mansoni worms in vivo is on record as “no differences in worm burden”. In addition, the IC50 in test [1] was roughly 2000 nM. In addition, the IC50 in test [2] is roughly 1000 nM. In addition, the “Data Mode (curve class), rHsAChE” value in test [3] is recorded as “decreasing (weakly active)”. Further, the IC50 in test [3] (read-out: IC50 (µM) rHsAChE) is greater than 19.5 µM. Moreover, at rSmTAChE [4], the “Inhibition (%) (Average)” value came to 61.37%, the “Inhibition (%) Replicate A” value came to 61.71% and the “Inhibition (%) Replicate B” value worked out at 61.03%. Also, at rSmTAChE [4] (5 µM), the “HTS/rSmTAChE Inhibition (Ave, %)” value is 61.37%. Further, on rSmTAChE [5], the “Data Mode (curve class), rSmTAChE” value is listed as “decreasing”; the “SI (Hs/Sm)” value came out at 8.82; the “fold greater potency/selectivity for SmTAChE vs. HsAChE (Selectivity Index)” value is on record as “about 10 fold”. Moreover, on rSmTAChE [5] (read-out: IC50 (µM) rSmTAChE), the IC50 turned out to be 2.21 µM.
Regarding `COC(=O)CCSCc1ccc(-c2onc(C)c2NC(=O)OC(C)c2ccccc2Cl)cc1` (stereo not drawn) [BRD-A94323479-001-02-8], the “Data Mode (curve class), rHsAChE” value in test [3] is “decreasing (weakly active)”. Further, the IC50 in test [3] (read-out: qAC50 (IC50), rHsAChE) was greater than 38 µM. For the same compound, on rSmTAChE [4], the “Inhibition (%) (Average)” value is 67.17%, the “Inhibition (%) Replicate A” value amounted to 60.59% and the “Inhibition (%) Replicate B” value is 73.75%. In addition, the “Data Mode (curve class), rSmTAChE” value on rSmTAChE [5] is “inactive”.
With `O=C(Cc1cccc(OC(F)(F)F)c1)Nc1ccc(CCCCc2nnc(NC(=O)Cc3ccccn3)s2)nn1` [BRD-K58070273-001-03-3], in test [3], the “Data Mode (curve class), rHsAChE” value was “inactive”. Further, on rSmTAChE [4], the “Inhibition (%) (Average)” value was determined as 71.54%, the “Inhibition (%) Replicate A” value was 74.28% and the “Inhibition (%) Replicate B” value turned out to be 68.80%. Further, the “Data Mode (curve class), rSmTAChE” value on rSmTAChE [5] is reported as “decreasing (weakly active)”. For the same compound, the IC50 on rSmTAChE [5] (read-out: qAC50 (IC50), rSmTAChE) is greater than 38 µM.
On to `COc1cc(NC(C)CCCN)c2ncccc2c1` (stereo not drawn) [Primaquine phosphate, reference compound], for which, in test [6], the “IC33 human red blood cell AChE” value is on record as 38 µM and the “IC67 human red blood cell AChE” value is on record as 247 µM. For the same compound, in test [3], the “Data Mode (curve class), rHsAChE” value is reported as “decreasing (weakly active)”. For the same compound, the inhibition at 20 µM at rSmTAChE [4] (read-out: HTS/rSmTAChE Inhibition (Ave, %)) came to 73.7%. Moreover, on rSmTAChE [5], the “Data Mode (curve class), rSmTAChE” value is “decreasing” and the “SI (Hs/Sm)” value turned out to be 2.21.
As to `CSc1cc2c(cc1C(F)(F)F)N(C(=O)Nc1cccnc1)CC2` [BRD-K14807180-001-02-5], in test [3], the “Data Mode (curve class), rHsAChE” value was “inactive”. In addition, at rSmTAChE [4], the “Inhibition (%) (Average)” value is on record as 86.29%, the “Inhibition (%) Replicate A” value is reported as 87.94% and the “Inhibition (%) Replicate B” value was 84.63%. The “Data Mode (curve class), rSmTAChE” value at rSmTAChE [5] is “inactive”.
As to `O=C(C[C@@H]1C[C@@H]2c3cc(NC(=O)NC4CCCC4)ccc3O[C@@H]2[C@H](CO)O1)NCc1ccc(Cl)cc1` [BRD-K38240817-001-01-4], in test [3], the “rHsAChE Data Mode” value is “decreasing (weakly active)”. At rSmTAChE [4], the “Inhibition (%) (Average)” value is reported as 84.65%, the “Inhibition (%) Replicate A” value was found to be 85.52% and the “Inhibition (%) Replicate B” value turned out to be 83.79%. For the same compound, at rSmTAChE [5], the “rSmTAChE Data Mode” value is “decreasing (weakly active)”.
`Clc1ccc(C(Cn2ccnc2)OCc2ccc(Sc3ccccc3)cc2)c(Cl)c1` (stereo not drawn) [BRD-A33697453-008-02-4]: in test [3], the “Data Mode (curve class), rHsAChE” value is “inactive”. For the same compound, at rSmTAChE [4], the “Inhibition (%) (Average)” value is 70.27%, the “Inhibition (%) Replicate A” value came out at 64.14% and the “Inhibition (%) Replicate B” value is recorded as 76.40%. Also, at rSmTAChE [5], the “Data Mode (curve class), rSmTAChE” value is “inactive”.
For the compound `COc1ccc(C#Cc2ccc3c(c2)O[C@H](CN(C)S(=O)(=O)c2ccccc2F)[C@H](C)CN([C@H](C)CO)S3(=O)=O)cc1` [BRD-K13781734-001-02-4], in test [3], the “rHsAChE Data Mode” value was “inactive”. In addition, at rSmTAChE [4], the “Inhibition (%) (Average)” value is on record as 66.73%, the “Inhibition (%) Replicate A” value is reported as 61.49% and the “Inhibition (%) Replicate B” value was found to be 71.97%. Besides, at rSmTAChE [5], the “rSmTAChE Data Mode” value was “decreasing (weakly active)”.
